In general, IC50 refers to the concentration that inhibits the measured activity by half.

Consider 28 molecules from US9850225B2, “Compounds useful as immunomodulators” (BRISTOL-MYERS SQUIBB COMPANY, priority 2014, dated 2017).

PD-1/PD-L1 interaction (PD-1-Ig / PD-L1-His), sequence (Q9NZQ7 other isoform, or with tags, fused parts or gaps): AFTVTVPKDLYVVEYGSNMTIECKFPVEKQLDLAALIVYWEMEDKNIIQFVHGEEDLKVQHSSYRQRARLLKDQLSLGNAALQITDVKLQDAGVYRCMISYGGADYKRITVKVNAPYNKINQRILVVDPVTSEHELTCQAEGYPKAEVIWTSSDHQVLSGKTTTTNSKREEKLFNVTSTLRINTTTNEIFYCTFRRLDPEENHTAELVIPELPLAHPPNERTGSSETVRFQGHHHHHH

One assay deals with PD-1/PD-L1 interaction (PD-1-Ig / PD-L1-His) (Homo sapiens (Human), UniProt Q9NZQ7). Nature of the assay: PD-1/PD-L1 Homogenous Time-Resolved Fluorescence (HTRF) binding assay. Conditions: PD-1/PD-L1 HTRF binding assay; numeric value; read-out: Range or IC50. A digest of the protocol:
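Human PD-L1-His (10 nM final) was pre-incubated with inhibitor for 15 min, then PD-1-Ig (20 nM final) was added for a further 15 min in dPBS with 0.1% BSA and 0.05% Tween-20. Binding was detected by HTRF using Eu-cryptate anti-Ig (1 nM) and APC anti-His (20 nM).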
A general note: TR-FRET usually uses a lanthanide donor and a delayed reading to cut background.
Consider `Cc1c(COc2cc(OCc3cccc(C#N)c3)c(CNC(CO)(Cc3ccccc3)C(=O)O)cc2Cl)cccc1-c1ccc2c(c1)OCCO2` (stereo not shown) [Example 1218, 2-benzyl-2-((5-chloro-2-((3-cyanobenzyl)oxy)-4-((3-(2,3-dihydrobenzo[b][1,4]dioxin-6-yl)-2-methylbenzyl)oxy)benzyl)amino)-3-hydroxypropanoic acid], for which the IC50 was found to be 10.1 nM.

In the case of `CC(=O)NCCNCc1ccc(OCc2cccc(-c3ccccc3)c2C)cc1OCc1ccc(C(=O)O)cc1` [Example 1043, 4-((2-(((2-acetamidoethyl)amino)methyl)-5-((2-methyl-[1,1′-biphenyl]-3-yl)methoxy)phenoxy)methyl)benzoic acid], the IC50 turned out to be 239 nM.

The same assay, now with this note: PD-1/PD-L1 HTRF binding assay; value given as range class; read-out: Range or IC50.
As to `COc1cc(OCc2cccc(-c3ccc4c(c3)OCCO4)c2C)cc(OCc2cccc(C#N)c2)c1CN[C@H](CO)C(=O)O` [Example 1139, (R)-2-((2-((3-cyanobenzyl)oxy)-4-((3-(2,3-dihydrobenzo[b][1,4]dioxin-6-yl)-2-methylbenzyl)oxy)-6-methoxybenzyl)amino)-3-hydroxypropanoic acid], the IC50 lay in the range of 0.6 to 10 nM. For the molecule `CC(=O)NCCNCc1cc(Br)c(OCc2cccc(-c3ccc4c(c3)OCCO4)c2C)cc1OCc1cccc(C#N)c1` [Example 1299, N-(2-((5-bromo-2-((3-cyanobenzyl)oxy)-4-((3-(2,3-dihydrobenzo[b][1,4]dioxin-6-yl)-2-methylbenzyl)oxy)benzyl)amino)ethyl)acetamide], the IC50 lay in the range of 0.6 to 10 nM. On the same count and under the same terms, for `Cc1c(COc2ccc(CNC(CO)C(=O)O)c(OCc3cccc(C#N)c3)c2)cccc1-c1ccccc1` (stereo not shown) [Example 1017, 2-((2-((3-cyanobenzyl)oxy)-4-((2-methyl-[1,1′-biphenyl]-3-yl)methoxy)benzyl)amino)-3-hydroxypropanoic acid] the value was 0.6 to 10 nM; for `CC(=O)NCCNCc1ccc(OCc2cccc(-c3ccccc3)c2C)cc1OCc1ccc(F)cc1F` [Example 1064, N-(2-((2-((2,4-difluorobenzyl)oxy)-4-((2-methyl-[1,1′-biphenyl]-3-yl)methoxy)benzyl)amino)ethyl)acetamide], 100 to 20000 nM. On the same count and under the same terms, for `CC(=O)NCCNCc1ccc(OCc2cccc(-c3ccccc3)c2C)cc1OCc1ccc2[nH]ncc2c1` [Example 1098, N-(2-((2-((1H-indazol-5-yl)methoxy)-4-((2-methyl-[1,1′-biphenyl]-3-yl)methoxy)benzyl)amino)ethyl)acetamide] the value was 100 to 20000 nM; for `CC(=O)NCCNCc1cc(Cl)c(OCc2cccc(-c3ccc4c(c3)OCCO4)c2C)cc1OCc1cncc(C#N)c1` [Example 1251, N-(2-((5-chloro-2-((5-cyanopyridin-3-yl)methoxy)-4-((3-(2,3-dihydrobenzo[b][1,4]dioxin-6-yl)-2-methylbenzyl)oxy)benzyl)amino)ethyl)acetamide], 0.6 to 10 nM. Same read-out and setting: the same measure for `Cc1c(COc2cc(OCc3cccc(C#N)c3)c(CN[C@H](CC(=O)O)C(=O)O)cc2Cl)cccc1-c1ccc2c(c1)OCCO2` [Example 1175, (R)-2-((5-chloro-2-((3-cyanobenzyl)oxy)-4-((3-(2,3-dihydrobenzo[b][1,4]dioxin-6-yl)-2-methylbenzyl)oxy)benzyl)amino)succinic acid]: 10 to 100 nM.

As for `Cc1cc(CN[C@@H](CO)C(=O)O)c(OCc2ccc(F)c(C#N)c2)cc1OCc1cccc(-c2ccc3c(c2)OCCO3)c1C` [Example 1274, (S)-2-((2-((3-cyano-4-fluorobenzyl)oxy)-4-((3-(2,3-dihydrobenzo[b][1,4]dioxin-6-yl)-2-methylbenzyl)oxy)-5-methylbenzyl)amino)-3-hydroxypropanoic acid], the IC50 was 0.6 to 10 nM. Turning to `Cc1cc(CNCCO)c(OCc2cncc(C#N)c2)cc1OCc1cccc(-c2ccc3c(c2)OCCO3)c1Cl` [Example 1151, 5-((5-(2-chloro-3-(2,3-dihydrobenzo[b][1,4]dioxin-6-yl)benzyloxy)-2-((2-hydroxyethylamino)methyl)-4-methylphenoxy)methyl)nicotinonitrile], the IC50 was 0.6 to 10 nM. Regarding `CC(=O)NCCNCc1ccc(OCc2cccc(-c3ccccc3)c2C)cc1OCc1ccc2c(cnn2C2CCCCO2)c1` (stereo not shown) [Example 1099, N-(2-((4-((2-methyl-[1,1′-biphenyl]-3-yl)methoxy)-2-((1-(tetrahydro-2H-pyran-2-yl)-1H-indazol-5-yl)methoxy)benzyl)amino)ethyl)acetamide], the IC50 lay in the range of 100 to 20000 nM. Same read-out and setting: the same measure for `CC(=O)NCCNCc1ccc(OCc2cccc(-c3ccccc3)c2C)cc1OCc1cccc(C(F)(F)F)c1` [Example 1051, N-(2-((4-((2-methyl-[1,1′-biphenyl]-3-yl)methoxy)-2-((3-(trifluoromethyl)benzyl)oxy)benzyl)amino)ethyl)acetamide]: 100 to 20000 nM. Still for that read-out and setting: for `Cc1cc(CN[C@](C)(CO)C(=O)O)c(OCc2cccnc2)cc1OCc1cccc(-c2ccc3c(c2)OCCO3)c1C` [Example 1281, (R)-2-((4-((3-(2,3-dihydrobenzo[b][1,4]dioxin-6-yl)-2-methylbenzyl)oxy)-5-methyl-2-(pyridin-3-ylmethoxy)benzyl)amino)-3-hydroxy-2-methylpropanoic acid] the value was 0.6 to 10 nM; for `Cc1cc(CN[C@](C)(CO)C(=O)O)c(OCc2ccc(F)c(C#N)c2)cc1OCc1cccc(-c2ccc3c(c2)OCCO3)c1C` [Example 1273, (R)-2-((2-((3-cyano-4-fluorobenzyl)oxy)-4-((3-(2,3-dihydrobenzo[b][1,4]dioxin-6-yl)-2-methylbenzyl)oxy)-5-methylbenzyl)amino)-3-hydroxy-2-methylpropanoic acid], 0.6 to 10 nM. The same measure, in the same setting: for `CC(=O)NCCNCc1ccc(OCc2cccc(-c3ccccc3)c2C)cc1OCc1cc(F)cc(Cl)c1` [Example 1091, N-(2-((2-((3-chloro-5-fluorobenzyl)oxy)-4-((2-methyl-[1,1′-biphenyl]-3-yl)methoxy)benzyl)amino)ethyl)acetamide] the value was 100 to 20000 nM; for `Cc1c(COc2cc(OCc3cncc(C#N)c3)c(CN3CCCC[C@H]3C(=O)O)cc2F)cccc1-c1ccc2c(c1)OCCO2` [Example 3002], 0.6 to 10 nM. In the case of `Cc1c(COc2cc(OCc3cccc(C#N)c3)c(CNC(Cc3c[nH]c4ccccc34)C(=O)O)cc2Cl)cccc1-c1ccc2c(c1)OCCO2` (stereo not shown) [Example 1192, 2-((5-chloro-2-((3-cyanobenzyl)oxy)-4-((3-(2,3-dihydrobenzo[b][1,4]dioxin-6-yl)-2-methylbenzyl)oxy)benzyl)amino)-3-(1H-indol-3-yl)propanoic acid], the IC50 was 100 to 20000 nM. Same read-out and setting: the same measure for `COCCCOc1cc(OCc2cccc(-c3ccccc3)c2C)ccc1CNCCNC(C)=O` [Example 1042, N-(2-((2-(3-methoxypropoxy)-4-((2-methyl-[1,1′-biphenyl]-3-yl)methoxy)benzyl)amino)ethyl)acetamide]: 100 to 20000 nM; for `Cc1c(COc2cc(OCc3cncc(C#N)c3)c(CN3CCCC[C@H]3C(=O)NS(=O)(=O)C(F)(F)F)cc2Cl)cccc1-c1ccc2c(c1)OCCO2` [Example 1258, (S)-1-(5-chloro-2-((5-cyanopyridin-3-yl)methoxy)-4-((3-(2,3-dihydrobenzo[b][1,4]dioxin-6-yl)-2-methylbenzyl)oxy)benzyl)-N-((trifluoromethyl)sulfonyl)piperidine-2-carboxamide]: 10 to 100 nM. The same measure, in the same setting: for `Cc1c(COc2cc(OCc3cccc(C#N)c3)c(CNC3(C(=O)O)COC3)cc2Cl)cccc1-c1ccc2c(c1)OCCO2` [Example 1243, 3-((5-chloro-2-((3-cyanobenzyl)oxy)-4-((3-(2,3-dihydrobenzo[b][1,4]dioxin-6-yl)-2-methylbenzyl)oxy)benzyl)amino)oxetane-3-carboxylic acid] the value was 10 to 100 nM. As to `CC(=O)NCCNCc1ccc(OCc2cccc(-c3ccccc3)c2C)cc1OCc1noc(C)n1` [Example 1104, N-(2-((2-((5-methyl-1,2,4-oxadiazol-3-yl)methoxy)-4-((2-methyl-[1,1′-biphenyl]-3-yl)methoxy)benzyl)amino)ethyl)acetamide], the IC50 lay in the range of 100 to 20000 nM. Still for that read-out and setting: the same measure for `Cc1c(COc2cc(OCc3cccc(C#N)c3)c(CN[C@H](COCc3ccccc3)C(=O)O)cc2Cl)cccc1-c1ccc2c(c1)OCCO2` [Example 1194, (R)-3-(benzyloxy)-2-((5-chloro-2-((3-cyanobenzyl)oxy)-4-((3-(2,3-dihydrobenzo[b][1,4]dioxin-6-yl)-2-methylbenzyl)oxy)benzyl)amino)propanoic acid]: 10 to 100 nM. Still for that read-out and setting: for `COC(=O)Cc1cccc(COc2cc(OCc3cccc(-c4ccccc4)c3C)ccc2CNCCNC(C)=O)c1` [Example 1101, methyl 2-(3-((2-(((2-acetamidoethyl)amino)methyl)-5-((2-methyl-[1,1′-biphenyl]-3-yl)methoxy)phenoxy)methyl)phenyl)acetate] the value was 100 to 20000 nM; for `Cc1c(COc2ccc(CN[C@H](CO)C(=O)O)c(OCc3cncc(C#N)c3)c2)cccc1-c1ccccc1` [Example 1327, (R)-2-((2-((5-cyanopyridin-3-yl)methoxy)-4-((2-methyl-[1,1′-biphenyl]-3-yl)methoxy)benzyl)amino)-3-hydroxypropanoic acid], 0.6 to 10 nM; for `CC(=O)NCCNCc1ccc(OCc2cccc(-c3ccccc3)c2C)cc1OCC(N)=O` [Example 1031, 2-(2-(((2-acetamidoethyl)amino)methyl)-5-((2-methyl-[1,1′-biphenyl]-3-yl)methoxy)phenoxy)acetamide], 100 to 20000 nM. In the case of `Cc1c(COc2cc(OCc3cccc(C#N)c3)c(CN[C@@H](C(=O)O)c3ccc(O)cc3)cc2Cl)cccc1-c1ccc2c(c1)OCCO2` [Example 1161, (R)-2-((5-chloro-2-((3-cyanobenzyl)oxy)-4-((3-(2,3-dihydrobenzo[b][1,4]dioxin-6-yl)-2-methylbenzyl)oxy)benzyl)amino)-2-(4-hydroxyphenyl)acetic acid], the half-inhibitory concentration (IC50) lay within 10 to 100 nM.

Still in this assay, the particulars now being: read-out: Range or IC50.
With `CC(=O)NCCNCc1ccc(OCc2cccc(-c3ccccc3)c2C)cc1OCc1cccc([N+](=O)[O-])c1` [Example 1076], the IC50 lay within 10 to 100 nM.
